The results in this text go back to patent US20060240424A1, “Regulation of human p2y15 g protein-coupled receptor” (priority 2002, published 2006).

“And” between values parts separate entries of the source, which are not always exact repeats. Equal entries are not always repeated.

In assay [1] the target is T1, P2Y15 (Homo sapiens, UniProt Q96P68). As to the kind of experiment: Calcium mobilization assay in presence of adenosine receptor antagonists. Type of assay: cell-based. To be noted: for block of calcium mobilization induced by AMP and adenosine: FIG. 4, dose-dependent. More on the design: expressed in transfected cells. Here is the method: (§1) Ligand screening was performed in a Ca^2+ flux assay as follows. Stably transfected P2Y15 GPCR-expressing cells were seeded into 96-well plates and incubated overnight at 37° C. in a tissue culture incubator. The culture medium was aspirated and replaced with […] of loading buffer containing 0.1% BSA, 20 mM HEPES, 1 mM probenecid, 0.01% pluronic F127, and 1 µM Fluo-3-AM (Molecular Probes, Eugene, Oreg.) in HBSS, and incubated for 1 hour at room temperature. The cells were then washed gently 3 times with wash buffer containing 0.1% BSA, 20 mM HEPES, 1 mM probenecid in HBSS. The washed cells were placed in an FDSS6000 functional drug screening system (Hamamatsu Photonics, Hamamatsu, Japan) and changes in cellular fluorescence were measured after adding serial dilutions of potential ligands. A panel of about 130 potential ligands was assembled by selecting known ligands of the GPCRs most closely related to P2Y15 GPCR as well as several naturally occurring chemical relatives of the ligands. The library included various bioactive lipids, eicosanoids, peptides, cannabinoids, chemokines, nucleosides, nucleotides and chemically related substances. The ligands were genereally purchased from either Sigma or R&D Systems.

For assay [2], the system named is nontransfected HEK293 cells. Kind of assay: Ca2+ flux assay in nontransfected HEK293 cells (control). Type of assay: cell-based, human. To be noted: for calcium mobilization in response to nucleotide: both stable transfectants and nontransfected cells (endogenous P2Y1 and P2Y2). In general terms: A change in cytosolic calcium serves as a functional read-out for many receptors and channels.

Assay [3] has as its system nontransfected HEK293 cells. As to the kind of experiment: Cyclic AMP production assay in nontransfected HEK293 cells. It is filed as cell-based, human. To be noted: 10 μM forskolin. The protocol:
(§2) The cells were then lysed and the cAMP produced was measured by a cAMP-specific ELISA. Concentrations of cAMP produced were calculated by comparing against cAMP standards measured simultaneously.

The target of assay [4] is T2, P2Y15 GPCR (Homo sapiens, UniProt Q96P68).
T2 construct: expressed in transfected cells
Kind of assay: Ca2+ flux assay (ligand screening) in stably transfected P2Y15 GPCR-expressing HEK293 cells. To be noted: FIG. 2A, read-out: calcium response EC50. Type of assay: cell-based. Here is the method:
as §1

In assay [5] the target is T1, P2Y15. Kind of assay: Cyclic AMP production assay in P2Y15-HEK293 stable transfectants. To be noted: for effect of pertussis toxin pretreatment on cyclic AMP production in response to ligand: pretreatment two hours with 1 μM pertussis toxin; for cyclic AMP response to ligand alone: without forskolin. Type of assay: cell-based. More on the design: expressed in transfected cells. The protocol:
as §2

Assay [6] concerns nontransfected HEK293 cells. Kind of assay: Competitive binding assay on nontransfected HEK293 cells. To be noted: for antagonism of ^3H-AMP binding to nontransfected HEK293 cells: 10 μM ^3H-AMP. Details: species or system human. The protocol: Competitive binding experiments were carried out as follows: 10^5 cells per well in 96-well plates were washed twice for 1 h with DMEM medium. Then wheatgerm agglutinin SPA beads (Amersham) at 1 mg/well were added, followed 1 h later by 10 μM [^3H]-Adenosine or 10 μM [^3H]-AMP (Amersham), and increasing concentrations of unlabeled ligand in a constant volume of HBS: 10 mM Hepes, 130 mM NaCl, 5 mM KCl, 1 mM MgCl2, 1 mM CaCl2 and 1 g/l glucose (6 μl/well)). After incubating at 4° C. for 16 h, the plates were centrifuged for 10 min at 1500 rpm and then scintillation measured on a TopCount automated scintillation counter. Ki values were determined by non-linear regression using the program Prism (Graph Pad).

For assay [7], the target named is T1, P2Y15. As to the kind of experiment: Receptor binding assay (saturation binding) on P2Y15 stable transfectants. To be noted: whole cells, 4° C., 16 h; radiolabelled ligand. Here is the method: 10^5 cells per well in 96-well plates were washed twice for 1 h with DMEM medium. […] After incubating at 4° C. for 16 h, the plates were centrifuged for 10 min at 1500 rpm and then scintillation measured on a TopCount automated scintillation counter. Binding of [^32P]-AMP was carried out under the same conditions except that instead of using SPA beads, at the end of the incubation, cells were washed three times by vacuum filtration and 100 μl scintillation fluid was added to the wells.

Assay [8] has as its target T1, P2Y15. Kind of assay: Competitive binding assay on P2Y15 transfectants. Details: expressed in transfected cells. To be noted: 10 μM ^3H-adenosine; FIG. 3D; read-out: Ki for blocking binding of ^3H-adenosine to transfectants. Here is the method:
Competitive binding experiments were carried out as follows: 10^5 cells per well in 96-well plates were washed twice for 1 h with DMEM medium. […] After incubating at 4° C. for 16 h, the plates were centrifuged for 10 min at 1500 rpm and then scintillation measured on a TopCount automated scintillation counter. Ki values were determined by non-linear regression using the program Prism (Graph Pad).

Setting [9] is: 10 M AMP (FIG. 4A legend), read-out: Ki for blocking calcium mobilization induced by AMP.
The mark [10] stands for this setting: Ki for blocking calcium mobilization induced by adenosine, 10 M adenosine (FIG. 4B legend).

What is called Ki is a dissociation constant, usually derived from enzyme kinetics or from competition with a known ligand. Take `Cn1c(=O)c2c(ncn2C)n(C)c1=O` [caffeine]: the Ki turned out to be 2.7 µM in assay [1] (setting [9]) and 26.2 µM in assay [1] (setting [10]).
In the case of `O=c1ccn([C@@H]2O[C@H](COP(=O)(O)OP(=O)(O)OP(=O)(O)O)[C@@H](O)[C@H]2O)c(=O)[nH]1` [UTP], in assay [2], the “calcium mobilization in response to nucleotide” value is “mobilized calcium”.
`Cn1c(=O)c2[nH]c(-c3ccccc3)nc2n(C)c1=O` [8-phenyltheophylline, 8-Phenyltheophylline]: the results for the Ki in assay [1] (setting [9]) and in assay [1] (setting [10]) were 0.25 µM and 0.26 µM, respectively.
For `CC(C)Cn1c(=O)n(C)c(=O)c2[nH]cnc21` [IBMX, 3-isobutyl-1 methylxanthine], the “block of calcium mobilization induced by AMP and adenosine” value (“block of calcium mobilization induced” below) in assay [1] is on record as “able to block”.
What is called Kd is the concentration at which binding is half-saturated. Regarding `Nc1ncnc2c1ncn2[C@@H]1O[C@H](COP(=O)(O)O)[C@@H](O)[C@H]1O` [AMP, Adenosine 5′-monophosphate], in assay [3], the “cyclic AMP generation in nontransfected HEK293 cells” value is “did not respond strongly”. The EC50 stood at 0.92 µM in assay [4] and 0.214 µM in assay [5] (in the presence of 10 μM forskolin, 30 min, FIG. 2B, read-out: generation of cyclic AMP EC50). Also, the “effect of pertussis toxin pretreatment on cyclic AMP production in response to ligand” value in assay [5] is reported as “not affected”. For the same compound, in assay [5], the “cyclic AMP response to ligand alone” value is “only minor responses barely above the detection limit”. Also, the “antagonism of ^3H-AMP binding to nontransfected HEK293 cells” value in assay [6] is given as “neither AMP nor adenosine can antagonize”. Besides, the “blocking ^3H-adenosine binding to nontransfected HEK293 cells” value in assay [6] (10 μM ^3H-adenosine, FIG. 3D) is given as “little effect”. For the same compound, in assay [7], the Kd is 18.6 µM and 18.8 µM. In addition, the Ki in assay [8] turned out to be 24.6 µM.
For the compound `Nc1ncnc2c1ncn2[C@@H]1O[C@H](COP(=O)(O)OP(=O)(O)OP(=O)(O)O)[C@@H](O)[C@H]1O` [ATP], the “calcium mobilization in response to nucleotide” value in assay [2] is recorded as “mobilized calcium”.
For the compound `Cn1c(=O)c2[nH]cnc2n(C)c1=O` [theophylline], the “block of calcium mobilization induced” value in assay [1] is “able to block”.
With `Nc1ncnc2c1ncn2[C@@H]1O[C@H](COP(=O)(O)CP(=O)(O)O)[C@@H](O)[C@H]1O` [AMP-CP, Adenosine 5′-(α,β-methylene)diphosphate], in assay [1], the “block of calcium mobilization induced” value is reported as “effective in blocking”.
In the case of `Nc1ncnc2c1ncn2[C@@H]1O[C@H](CO)[C@@H](O)[C@H]1O` [adenosine], the “cyclic AMP generation in nontransfected HEK293 cells” value in assay [3] is “generated cyclic AMP”. Further, in assay [5], the “effect of pertussis toxin pretreatment on cyclic AMP production in response to ligand” value is “not affected” and the “cyclic AMP response to ligand alone” value is listed as “only minor responses barely above the detection limit”. In addition, the “calcium mobilization response to adenosine in nontransfected cells” value in assay [2] (nontransfected HEK293, detected only at very high adenosine concentrations) is “very weak response”. For the same compound, in assay [6], the “antagonism of ^3H-AMP binding to nontransfected HEK293 cells” value is recorded as “neither AMP nor adenosine can antagonize”.
